Test results taken from US20250120372A1, “HUMANIZED MOUSE MODEL OF FIBROSIS” (The Jackson Laboratory, priority 2021, published 2025).

How the values were obtained:
[1] = system: NSG-SGM3 BLT mice; details: mouse, in vivo
Procedure: SLG20 alginate 500 μm diameter spheres (“alginate spheres,” 0.5 ml total implant volume) were implanted into the intraperitoneal (IP) space of pro-fibrotic C57BL/6 mice and various humanized mouse models, retained for 28 days, and analyzed for degree of fibrosis upon alginate sphere retrieval. […] Experiments repeated at least 3 times.
Implanted mice were anesthetized with 3% isoflurane in oxygen and their abdomens were shaved and sterilized using betadine and isopropanol. Preoperatively, all mice received 0.05 mg/kg buprenorphine and 0.2 mL of 0.9% saline SC for pre-surgery analgesia and hydration. A midline incision (0.5 mm) was made and the peritoneal lining was exposed using blunt dissection. The peritoneal wall was then grasped with forceps and a 0.5-1 mm incision was made along the linea alba. 500 μL of spheres were then loaded into a sterile pipette and implanted into the intraperitoneal (IP) space. The incision was then closed using 5-0 PDS II absorbable sutures, and the skin was closed using wound clips and VetBond tissue glue. […] For macrophage depletion, clodrosomes (200 μL/mouse) (Encapsula NanoSciences, Nashville, TN) were injected IP starting at −3 days (prior to implant day 0), and for every 7 days thereafter (on days −3, 4, and 11). […]

[2] = system: NSG-SGM3 BLT mice; details: mouse, in vivo, sc
Procedure: All wild type male immune-competent C57BL/6 mice or immunodeficient strains used for producing humanized models (described below) were ordered pathogen-free from The Jackson Laboratory (Bar Harbor, ME). Implanted mice were anesthetized with 3% isoflurane in oxygen and their abdomens were shaved and sterilized using betadine and isopropanol. Preoperatively, all mice received 0.05 mg/kg buprenorphine and 0.2 mL of 0.9% saline SC for pre-surgery analgesia and hydration.
For phase contrast imaging retrieved materials were gently washed using Krebs buffer and transferred into 35 mm petri dishes for phase contrast microscopy using an EVOS XL microscope (Advanced Microscopy Group). For bright-field imaging of retrieved materials, samples were gently washed using Krebs buffer and transferred into 35 mm petri dishes for bright-field imaging using a Leica Stereoscopic microscope.
Retrieved material-containing tissue (intraperitoneal and/or subcutaneous) was fixed overnight using 4% paraformaldehyde at 4° C. After fixation, alginate sphere or retrieved tissue samples were washed using 70% alcohol. The materials were then paraffin embedded, sectioned at 5 μm thickness and stained according to standard histological (H&E or Masson's Trichrome) methods.

fibrotic encapsulation upon retrieval [2]	Substance	FBR / fibrosis [1]
–	polydimethylsiloxane [PDMS 5 mm molded discs]	fibrosis of synthetic biomaterial polymer implants was observed
prominent fibrotic encapsulation	polystyrene [Polystyrene spheres]	fibrosis of synthetic biomaterial polymer implants was observed
